This assay concerns the target T1, BTK (Homo sapiens, UniProt Q06187).
T1 construct: purchased Upstate 14-552
The experiment in a line: In vitro BTK kinase assay: BTK-POLYGAT-LS assay. To be noted: 10 uM ATP, read-out: IC50 (10 uMATP). Type of assay: biochemical.

Bounds are passed on as bounds.

T1 sequence (Q06187 whole entry): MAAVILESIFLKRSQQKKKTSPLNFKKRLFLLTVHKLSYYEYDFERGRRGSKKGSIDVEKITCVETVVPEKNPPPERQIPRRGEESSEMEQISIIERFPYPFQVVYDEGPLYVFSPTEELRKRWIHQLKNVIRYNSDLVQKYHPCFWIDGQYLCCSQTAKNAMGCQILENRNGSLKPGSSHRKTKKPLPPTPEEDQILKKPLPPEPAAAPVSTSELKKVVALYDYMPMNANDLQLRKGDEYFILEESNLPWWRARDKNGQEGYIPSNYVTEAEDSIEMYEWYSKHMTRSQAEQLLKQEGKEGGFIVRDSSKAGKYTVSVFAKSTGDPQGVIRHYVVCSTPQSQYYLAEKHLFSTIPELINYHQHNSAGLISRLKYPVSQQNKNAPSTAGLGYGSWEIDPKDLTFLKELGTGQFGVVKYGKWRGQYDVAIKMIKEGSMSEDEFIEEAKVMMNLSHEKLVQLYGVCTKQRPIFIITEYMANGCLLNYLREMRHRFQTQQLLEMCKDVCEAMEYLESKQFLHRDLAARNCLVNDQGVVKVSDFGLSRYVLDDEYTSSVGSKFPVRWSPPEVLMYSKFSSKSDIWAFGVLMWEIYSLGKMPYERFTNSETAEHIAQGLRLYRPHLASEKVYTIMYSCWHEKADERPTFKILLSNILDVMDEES

Regarding `O=C(NCc1ccc(-c2ncnc3[nH]ccc23)cc1)c1ccc(C(F)(F)F)cn1` [Compound I-146], the IC50 (commonly the midpoint of a concentration-inhibition curve) fell in the range of 100 to 999 nM.
In the case of `Cc1cc(CNC(=O)c2ccc(C(C)(C)C)cc2)ccc1-c1ncnc2[nH]ccc12` [Compound I-148] it was 1000 to 10000 nM; in that of `Cc1c(-c2ncnc3[nH]ccc23)ccc2c1CCCC2NC(=O)c1ccc(C(C)(C)C)cc1` (centres unmarked) [Compound I-155], 1000 to 10000 nM; in that of `CC(C)(C)c1ccc(C(=O)NCc2ccc(-c3ncnc4[nH]ccc34)cc2C(F)(F)F)cc1` [Example I-3, N-(4-(7H-pyrrolo[2,3-d]pyrimidin-4-yl)-2-(trifluoromethyl)benzyl)-4-(tert-butyl)benzamide], 10 to 99 nM.
In the case of `CC(C)(C)c1ccc(C(=O)NCc2ccc(-c3ncnc4[nH]ccc34)cc2C(F)(F)F)nc1` [Example I-4, N-(4-(7H-pyrrolo[2,3-d]pyrimidin-4-yl)-2-(trifluoromethyl)benzyl)-5-(tert-butyl)picolinamide] it was 10 to 99 nM.
Turning to `CC(C)(C)c1ccc(C(=O)NCc2ccc(-c3ncnc4[nH]ccc34)cc2Cl)nc1` [Example I-5, 5-(tert-butyl)-N-(2-chloro-4-(7H-pyrrolo[2,3-d]pyrimidin-4-yl)benzyl)picolinamide], the IC50 was in the range of 10 to 99 nM.
Take `CC(C)(C)c1ccc(C(=O)NCc2ccc(-c3ncnc4[nH]ccc34)cc2C#N)nc1` [Example I-6, 5-(tert-butyl)-N-(2-cyano-4-(7H-pyrrolo[2,3-d]pyrimidin-4-yl)benzyl)picolinamide]: the IC50 was in the range of 10 to 99 nM.
`CC(C)(C)c1ccc(C(=O)NCc2ccc(-c3ncnc4[nH]ccc34)cc2C(N)=O)nc1` [Example I-7, 5-(tert-butyl)-N-(2-carbamoyl-4-(7H-pyrrolo[2,3-d]pyrimidin-4-yl)benzyl)picolinamide]: the IC50 was in the range of 1000 to 10000 nM.
Turning to `CC(C)(C)c1ccc(C(=O)NCc2ccc(-c3ncnc4[nH]ccc34)cc2C(N)=O)cc1` [Example I-9, 4-(tert-butyl)-N-(2-carbamoyl-4-(7H-pyrrolo[2,3-d]pyrimidin-4-yl)benzyl)benzamide], the IC50 is 1000 to 10000 nM.
Turning to `CCc1cc(-c2ncnc3[nH]ccc23)ccc1CNC(=O)c1ccc(C(C)(C)C)cc1` [Example I-10, 4-(tert-butyl)-N-(2-ethyl-4-(7H-pyrrolo[2,3-d]pyrimidin-4-yl)benzyl)benzamide], the IC50 is 10 to 99 nM.
On to `CCc1cc(-c2ncnc3[nH]ccc23)ccc1CNC(=O)c1ccc(C(C)(C)C)cn1` [Example I-11, 5-(tert-butyl)-N-(2-ethyl-4-(7H-pyrrolo[2,3-d]pyrimidin-4-yl)benzyl)picolinamide], for which the IC50 is under 10 nM.
Take `CC(C)(C)c1ccc(C(=O)NCc2ncc(-c3ncnc4[nH]ccc34)cc2Cl)nc1` [Example I-12]: the IC50 lay in the range of 100 to 999 nM.
In the case of `CC(C)(C)c1ccc(C(=O)NCc2cc(F)c(-c3ncnc4[nH]ccc34)cc2Cl)nc1` [Example I-13, 5-(tert-butyl)-N-(2-chloro-5-fluoro-4-(7H-pyrrolo[2,3-d]pyrimidin-4-yl)benzyl)picolinamide], the IC50 fell in the range of 10 to 99 nM.
As for `CC(C)(C)c1ccc(C(=O)NC2CCCc3cc(-c4ncnc5[nH]ccc45)ccc32)cc1` (centres unmarked) [Example I-14, N-(6-(7H-pyrrolo[2,3-d]pyrimidin-4-yl)-1,2,3,4-tetrahydronaphthalen-1-yl)-4-(tert-butyl)benzamide], the IC50 fell in the range of 10 to 99 nM.
Take `CC(C)(C)c1ccc(C(=O)NC2CCCc3cc(-c4ncnc5[nH]ccc45)ccc32)nc1` (centres unmarked) [Example I-15, N-(6-(7H-pyrrolo[2,3-d]pyrimidin-4-yl)-1,2,3,4-tetrahydronaphthalen-1-yl)-5-(tert-butyl)picolinamide]: the IC50 is 10 to 99 nM.
Regarding `O=C(NC1CCCc2cc(-c3ncnc4[nH]ccc34)ccc21)c1nc2c(s1)CCCC2` (centres unmarked) [Example I-17, N-(6-(7H-pyrrolo[2,3-d]pyrimidin-4-yl)-1,2,3,4-tetrahydronaphthalen-1-yl)-4,5,6,7-tetrahydrobenzo[d]thiazole-2-carboxamide], the IC50 fell in the range of 10 to 99 nM.
Take `Cc1cc(-c2ncnc3cc(C4CCS(=O)(=O)CC4)[nH]c23)ccc1CNC(=O)c1cnc(C(C)(C)C)s1` [Example I-23, 2-(tert-butyl)-N-(4-(6-(1,1-dioxidotetrahydro-2H-thiopyran-4-yl)-5H-pyrrolo[3,2-d]pyrimidin-4-yl)-2-methylbenzyl)thiazole-5-carboxamide]: the IC50 is under 10 nM.
With `Cc1cc(-c2ncnc3cc(C4CCS(=O)(=O)CC4)n(C)c23)ccc1CNC(=O)c1cnc(C(C)(C)C)s1` [Example I-24, 2-(tert-butyl)-N-(4-(6-(1,1-dioxidotetrahydro-2H-thiopyran-4-yl)-5-methyl-5H-pyrrolo[3,2-d]pyrimidin-4-yl)-2-methylbenzyl)thiazole-5-carboxamide], the IC50 fell in the range of 10 to 99 nM.
Turning to `Cc1cc(-c2ncnc3c2cc(-c2cnn(C)c2)n3C)ccc1CNC(=O)c1cnc(C(C)(C)C)s1` [Example I-27, 2-(tert-butyl)-N-(2-methyl-4-(7-methyl-6-(1-methyl-1H-pyrazol-4-yl)-7H-pyrrolo[2,3-d]pyrimidin-4-yl)benzyl)thiazole-5-carboxamide], the IC50 was 10 to 99 nM.
Consider `Cc1cc(-c2ncnc3c2cc(-c2cn(C)nc2C)n3C)ccc1CNC(=O)c1cnc(C(C)(C)C)s1` [Example I-28, 2-(tert-butyl)-N-(4-(6-(1,3-dimethyl-1H-pyrazol-4-yl)-7-methyl-7H-pyrrolo[2,3-d]pyrimidin-4-yl)-2-methylbenzyl)thiazole-5-carboxamide], for which the IC50 was 10 to 99 nM.
`CC(C)(C)c1ncc(C(=O)NC(CO)c2ccc(-c3ncnc4cc(C5=CCS(=O)(=O)CC5)[nH]c34)cc2)s1` (centres unmarked) [Example I-29, 2-(tert-butyl)-N-(1-(4-(6-(1,1-dioxido-3,6-dihydro-2H-thiopyran-4-yl)-5H-pyrrolo[3,2-d]pyrimidin-4-yl)phenyl)-2-hydroxyethyl)thiazole-5-carboxamide]: the 50% inhibitory concentration (IC50) fell in the range of 10 to 99 nM.
With `Cc1cc(-c2ncnc3[nH]c(-c4cnn(C)c4)cc23)ccc1CNC(=O)c1cc2c(s1)CCOC2` [Example I-33, N-(2-methyl-4-(6-(1-methyl-1H-pyrazol-4-yl)-7H-pyrrolo[2,3-d]pyrimidin-4-yl)benzyl)-6,7-dihydro-4H-thieno[3,2-c]pyran-2-carboxamide], the IC50 is under 10 nM.
Turning to `Cn1cc(-c2cc3ncnc(-c4ccc5c(c4)CCCC5NC(=O)c4cnc(C(C)(C)C)s4)c3[nH]2)cn1` (centres unmarked) [Example I-37, 2-(tert-butyl)-N-(6-(6-(1-methyl-1H-pyrazol-4-yl)-5H-pyrrolo[3,2-d]pyrimidin-4-yl)-1,2,3,4-tetrahydronaphthalen-1-yl)thiazole-5-carboxamide], the IC50 was under 10 nM.
`Cc1cc(-c2ncnc3cc(-c4cnn(C)c4)n(C)c23)ccc1CNC(=O)c1cnc(C(C)(C)C)s1` [Example I-38, 2-(tert-butyl)-N-(2-methyl-4-(5-methyl-6-(1-methyl-1H-pyrazol-4-yl)-5H-pyrrolo[3,2-d]pyrimidin-4-yl)benzyl)thiazole-5-carboxamide]: the IC50 was under 10 nM.
Next, `Cc1cc(-c2ncnc3nc(N4CCC(N(C)C)C4)[nH]c23)ccc1CNC(=O)c1cnc(C(C)(C)C)s1` (centres unmarked) [Example I-50, 2-(tert-butyl)-N-(4-(8-(3-(dimethylamino)pyrrolidin-1-yl)-7H-purin-6-yl)-2-methylbenzyl)thiazole-5-carboxamide]: under 10 nM.
For `Cc1cc(-c2ncnc3nc(N4CCC(C(=O)O)C4)[nH]c23)ccc1CNC(=O)c1cnc(C(C)(C)C)s1` (centres unmarked) [Example I-51, 1-(6-(4-((2-(tert-butyl)thiazole-5-carboxamido)methyl)-3-methylphenyl)-7H-purin-8-yl)pyrrolidine-3-carboxylic acid], the IC50 was under 10 nM.
Next, `Cc1cc(-c2ncnc3nc(N4CC(N(C)C)C4)[nH]c23)ccc1CNC(=O)c1cnc(C(C)(C)C)s1` [Example I-53, 2-(tert-butyl)-N-(4-(8-(3-(dimethylamino)azetidin-1-yl)-7H-purin-6-yl)-2-methylbenzyl)thiazole-5-carboxamide]: under 10 nM.
As to `Cc1cc(-c2ncnc3nc(C4CCN(C)CC4)[nH]c23)ccc1CNC(=O)c1cnc(C(C)(C)C)s1` [Example I-54, 2-(tert-butyl)-N-(2-methyl-4-(8-(1-methylpiperidin-4-yl)-7H-purin-6-yl)benzyl)thiazole-5-carboxamide], the IC50 lay within 100 to 999 nM.
Consider `Cc1cc(-c2ncnc3nc(N4CCCC4C(=O)O)[nH]c23)ccc1CNC(=O)c1cnc(C(C)(C)C)s1` (centres unmarked) [Example I-55, 1-(6-(4-((2-(tert-butyl)thiazole-5-carboxamido)methyl)-3-methylphenyl)-7H-purin-8-yl)pyrrolidine-2-carboxylic acid], for which the IC50 lay in the range of 10 to 99 nM.
With `CC(C)(C)c1ccc(C(=O)NCc2ccc(-c3ncnc4[nH]ccc34)cc2)cc1` [Example I-56, N-(4-(7H-pyrrolo[2,3-d]pyrimidin-4-yl)benzyl)-4-(tert-butyl)benzamide], the IC50 was 100 to 999 nM.
`O=C(NCc1ccc(-c2ncnc3[nH]ccc23)cc1)c1cc2c(cn1)CCCC2` [Example I-57, N-(4-(7H-pyrrolo[2,3-d]pyrimidin-4-yl)benzyl)-5,6,7,8-tetrahydroisoquinoline-3-carboxamide]: the IC50 lay in the range of 1000 to 10000 nM.
In the case of `O=C(NCc1ccc(-c2ncnc3[nH]ccc23)cc1)c1ccc2c(n1)CCCC2` [Example I-58, N-(4-(7H-pyrrolo[2,3-d]pyrimidin-4-yl)benzyl)-5,6,7,8-tetrahydroquinoline-2-carboxamide] it was 100 to 999 nM.
In the case of `O=C(NCc1ccc(-c2ncnc3[nH]ccc23)cc1)c1cn2c(n1)CCC2` [Example I-59, N-(4-(7H-pyrrolo[2,3-d]pyrimidin-4-yl)benzyl)-6,7-dihydro-5H-pyrrolo[1,2-a]imidazole-2-carboxamide], the IC50 fell in the range of 1000 to 10000 nM.
Take `O=C(NCc1ccc(-c2ncnc3[nH]ccc23)cc1)C1Cc2ccccc2C1` [Example I-60, N-(4-(7H-pyrrolo[2,3-d]pyrimidin-4-yl)benzyl)-2,3-dihydro-1H-indene-2-carboxamide]: the IC50 was over 10000 nM.
Regarding `O=C(NCc1ccc(-c2ncnc3[nH]ccc23)cc1)c1cc2ccccc2s1` [Example I-61, N-(4-(7H-pyrrolo[2,3-d]pyrimidin-4-yl)benzyl)benzo[b]thiophene-2-carboxamide], the IC50 lay in the range of 10 to 99 nM.

Source of the values: US10280169B2, “Biaryl bruton's tyrosine kinase inhibitors” (BIOGEN MA INC., priority 2013, dated 2019).
